Converted amounts (≈) assume the structure as drawn.
Experiments:
[1] = system: Campylobacter jejuni A-19-3; experiment: Antibacterial activity against Campylobacter jejuni, twofold agar-dilution method; type: cell-based; conditions: A193, strain A-19-3, blood-containing Mueller-Hinton agar, 48 h, 37° C. microaerobically, calculated for free base, read-out: minimum inhibitory concentration (MIC)
Protocol: (§1) The numbers in the table show minimum inhibitory concentrations (MIC) (μg/ml), calculated for free base. The minimum inhibitory concentration was determined by the twofold agar-dilution method using blood-containing Mueller-Hinton agar. One loopful of a culture of test organisms in Mueller-Hinton broth was inoculated onto 10-ml drug-containing agar layer in petri dishes. Bacterial growth was observed after 48-hour incubation at 37° C. microaerobically. The MIC was defined as the lowest drug concentration which prevented visible bacterial growth.

[2] = system: Campylobacter jejuni A-11-3; experiment: as above; type: cell-based; conditions: A113, strain A-11-3, blood-containing Mueller-Hinton agar, 48 h, 37° C. microaerobically, calculated for free base, read-out: minimum inhibitory concentration (MIC)
Protocol: as §1

[3] = system: Campylobacter jejuni 10; experiment: as above; type: cell-based; conditions: strain 10, blood-containing Mueller-Hinton agar, 48 h, 37° C. microaerobically, calculated for free base, read-out: minimum inhibitory concentration (MIC)
Protocol: as §1

[4] = system: Campylobacter jejuni 19806; experiment: as above; type: cell-based; conditions: strain 19806, blood-containing Mueller-Hinton agar, 48 h, 37° C. microaerobically, calculated for free base, read-out: minimum inhibitory concentration (MIC)
Protocol: as §1

[5] = system: Campylobacter jejuni 19804; experiment: as above; type: cell-based; conditions: strain 19804, blood-containing Mueller-Hinton agar, 48 h, 37° C. microaerobically, calculated for free base, read-out: minimum inhibitory concentration (MIC)
Protocol: as §1

[6] = system: Campylobacter jejuni 19807; experiment: as above; type: cell-based; conditions: strain 19807, blood-containing Mueller-Hinton agar, 48 h, 37° C. microaerobically, calculated for free base, read-out: minimum inhibitory concentration (MIC)
Protocol: as §1

[7] = system: Campylobacter jejuni 10812; experiment: as above; type: cell-based; conditions: strain 10812, blood-containing Mueller-Hinton agar, 48 h, 37° C. microaerobically, calculated for free base, read-out: minimum inhibitory concentration (MIC)
Protocol: as §1

[8] = system: Pseudomonas aeruginosa 12; experiment: In vivo efficacy against systemic infections in mice; set-up: species or system Pseudomonas aeruginosa; male mice (ddY-S); conditions: Pseudomonas aeruginosa, 12, 168 h, oral, intraperitoneal infection about 5×10^3 cells, 4% mucin, twice, immediately and 6 h after infection, 7 days, calculated for free base, read-out: median effective dose (ED50)
Protocol: (§2) Compounds were each dissolved in deionized water. Each of the solutions was orally administered to mice infected with each of the test organisms under the conditions shown hereinbelow, and the median effective dose (ED50) was calculated by probit analysis. The numerals in the table show ED50 (mg/kg) value, calculated for free base.
(§3) Mice: Male mice (ddY-S) weighing about 20 g
Pseudomonas aeruginosa 12
Intraperitoneal infection with about 5×10^3 cells per mouse suspended in tryptosoy broth with 4% mucin.
(§4) Four times, immediately, 6, 24 and 30 hours after infection in case of Streptococcus pneumoniae 1 Neufeld. Twice, immediately and 6 hours after infection in case of other organisms.
(§5) For 14 days in case of Staphylococcus aureus 50774 and Streptocuccus pneumoniae 1 Neufeld. For 7 days in case of other organisms.

[9] = system: S. aureus No. 80; experiment: In vitro antibacterial activity, twofold agar-dilution method; type: cell-based; conditions: Staphylococcus aureus; S. aureus No. 80 (Gram +); Mueller-Hinton agar, 20 h, 37° C.; calculated for free base; read-out: minimum inhibitory concentration (MIC)
Protocol: (§6) The numbers in the table show minimum inhibitory concentrations (MIC) (μg/ml), calculated for free base. The minimum inhibitory concentration was determined by the twofold agar-dilution method, which was recommended by Japan Society of Chemotherapy (Chemotherapy, 29(1), 76(1981)), using Muller-Hinton agar. One loopful of an overnight culture of test organisms in Mueller-Hinton broth was inoculated onto 10-ml drug-containing agar layers in petri dishes. Bacterial inocula contained approximately 10^6 colonyl-formingunits. Bacterial growth was observed after 20-hour incubation at 37° C. The MIC was defined as the lowest drug concentration which prevented visible bacterial growth.

[10] = system: B. subtilis PCI 219; experiment: as above; type: cell-based; conditions: Bacillus subtilis, PCI219; B. subtilis PCI 219 (Gram +); Mueller-Hinton agar, 20 h, 37° C.; calculated for free base; read-out: minimum inhibitory concentration (MIC)
Protocol: as §6

[11] = system: Al. faecalis P-7001; experiment: as above; type: cell-based; conditions: Alcaligenes faecalis, P7001; Al. faecalis P-7001 (Gram -); Mueller-Hinton agar, 20 h, 37° C.; calculated for free base; read-out: minimum inhibitory concentration (MIC)
Protocol: as §6

[12] = system: S. epidermidis No. 8; experiment: as above; type: cell-based; conditions: Staphylococcus epidermidis; S. epidermidis No. 8 (Gram +); Mueller-Hinton agar, 20 h, 37° C.; calculated for free base; read-out: minimum inhibitory concentration (MIC)
Protocol: as §6

[13] = system: Ac. calcoaceticus P-6901; experiment: as above; type: cell-based; conditions: Acinetobacter calcoaceticus, P6901; Ac. calcoaceticus P-6901 (Gram -); Mueller-Hinton agar, 20 h, 37° C.; calculated for free base; read-out: minimum inhibitory concentration (MIC)
Protocol: as §6

[14] = system: E. coli P-51213; experiment: as above; type: cell-based; conditions: Escherichia coli, P51213; E. coli P-51213 (Gram -); Mueller-Hinton agar, 20 h, 37° C.; calculated for free base; read-out: minimum inhibitory concentration (MIC)
Protocol: as §6

[15] = system: S. aureus No. 50774; experiment: as above; type: cell-based; conditions: Staphylococcus aureus; S. aureus No. 50774 (Gram +); Mueller-Hinton agar, 20 h, 37° C.; calculated for free base; read-out: minimum inhibitory concentration (MIC)
Protocol: as §6

[16] = system: P. aeruginosa No. 12; experiment: as above; type: cell-based; conditions: Pseudomonas aeruginosa; P. aeruginosa No. 12 (Gram -); Mueller-Hinton agar, 20 h, 37° C.; calculated for free base; read-out: minimum inhibitory concentration (MIC)
Protocol: as §6

[17] = system: S. aureus 209P JC-1; experiment: as above; type: cell-based; conditions: Staphylococcus aureus; S. aureus 209P JC-1 (Gram +); Mueller-Hinton agar, 20 h, 37° C.; calculated for free base; read-out: minimum inhibitory concentration (MIC)
Protocol: as §6

[18] = system: Staphylococcus aureus 50774; experiment: In vivo efficacy against systemic infections in mice; set-up: species or system Staphylococcus aureus; male mice (ddY-S); conditions: Staphylococcus aureus, 50774, 336 h, oral, intravenous infection 5×10^8 cells, twice, immediately and 6 h after infection, 14 days, calculated for free base, read-out: median effective dose (ED50)
Protocol: as §2, §3
Staphylococcus aureus 50774
Intravenous infection with 5×10^8 cells per mouse suspended in saline.
as §4, §5

`CC1CN(c2c(F)c(N)c3c(=O)c(C(=O)O)cn(C4CC4)c3c2F)CCN1` (stereo not drawn) [Compound 1, 5-Amino-1-cyclopropyl-6,8-difluoro-7-(3-methyl-1-piperazinyl)-1,4-dihydro-4-oxoquinoline-3-carboxylic acid] was tested. Which MIC [1] did it give?
Its MIC is 0.05 µg/mL (≈ 0.132 µM).

And the MIC [2]?
Its MIC is 0.05 µg/mL (≈ 0.132 µM).

And the MIC [3]?
Its MIC is 0.0125 µg/mL (≈ 0.033 µM).

And the MIC [4]?
Its MIC is 0.0125 µg/mL (≈ 0.033 µM).

What about the MIC [5] of the same molecule?
The MIC was 0.0125 µg/mL (≈ 0.033 µM).

And the MIC [6]?
The MIC was 0.0125 µg/mL (≈ 0.033 µM).

What about the MIC [7] of the same molecule?
Its MIC is 0.025 µg/mL (≈ 0.0661 µM).

And the ED50 [8]?
Its ED50 is 1.11 mg/kg.

And the MIC [9]?
The MIC was 0.0125 µg/mL (≈ 0.033 µM).

What about the MIC [10] of the same molecule?
The MIC was 0.05 µg/mL (≈ 0.132 µM).

And the MIC [11]?
Its MIC is 0.1 µg/mL (≈ 0.264 µM).

And the MIC [12]?
Its MIC is 0.025 µg/mL (≈ 0.0661 µM).

And the MIC [13]?
The MIC was 0.0125 µg/mL (≈ 0.033 µM).

What about the MIC [14] of the same molecule?
Its MIC is 0.025 µg/mL (≈ 0.0661 µM).

And the MIC [15]?
The MIC was 0.0125 µg/mL (≈ 0.033 µM).

What about the MIC [16] of the same molecule?
The MIC was 0.1 µg/mL (≈ 0.264 µM).

And the MIC [17]?
Its MIC is 0.025 µg/mL (≈ 0.0661 µM).

And the ED50 [18]?
The ED50 was 1.35 mg/kg.

Source: patent publication US4795751A, “5-substituted-6,8-difluoroquinolines useful as antibacterial agents” (Dainippon Pharmaceutical Co., Ltd., priority 1985, dated 1989)
